From US11001591B2, “TRAF 6 inhibitors” (HELMHOLTZ ZENTRUM MUENCHEN—DEUTSCHES FORSCHUNGSZENTRUM FÜR …, priority 2016, dated 2021)
“Also recorded” adds a separate entry of the source. Where two headings read alike, the source gives them in different places.

Tests used:
TRAF6-UBC13 interaction = target: T1, TRAF6-UBC13 interaction (Homo sapiens, UniProt Q9Y4K3); test: ALPHAScreen TRAF6WTStrepII-Ubc13FH interaction assay; type: binding; conditions: serial dilution
T1 construct: RING-Zincfinger1 (RZ1) domain (residues 50-159) of TRAF6 wildtype; made in house; host or cells: E. coli BL21 codon plus RIPL
T1 sequence (Q9Y4K3 50-159): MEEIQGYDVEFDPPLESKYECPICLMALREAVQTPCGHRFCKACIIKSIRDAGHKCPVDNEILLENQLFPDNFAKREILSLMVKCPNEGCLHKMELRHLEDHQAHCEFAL
Source text: In order to identify small molecules that specifically target the RZ1 domain of TRAF6 and thereby prevent its binding to Ubc13, the ALPHAScreen technology (PerkinElmer) was chosen to detect TRAF6WTStrepII-Ubc13FH interaction in High-Throughput-Screenings as well as Structure Activity Relationship (SAR) analysis.
For performance of an automated ALPHAScreen assay, all following components were pre-diluted in ALPHAScreen buffer (1×PBS, 0.5% BSA, 0.01% Tween-20). First, the TRAF6 protein (end concentration 100 nM, 30 μL volume) was added to 384-well-opti-plates involving the MultiFlo dispensing system (BioTek) followed by transfer of the compounds via the Sciclone G3 transfer station (PerkinElmer). After addition of Ubc13FH (end concentration 75 nM, 10 μL volume) with the MultiFlo system and incubation for one hour at room temperature, both beads (Strep-Tactin Alpha Donor beads and Nickel-Chelate acceptor beads; end concentrations 4 μg each, 10 μL volume each) were mixed and added using the MultiFlo system in subdued light. Read-out of the plates occurred after another hour of incubation at room temperature. Statistical parameters including the coefficient of variation, Z′ factor and signal window were calculated to determine the quality of the HTS campaign. To evaluate the efficacy of the compounds, ALPHAScreen units of compound-treated samples were referred to DMSO control treated samples. Thereby, the TRAF6D57K mutant served as the control for minimum signal and was included on every plate of the screening. Compounds that inhibited TRAF6WTStrepII-Ubc13FH by more than 25% were considered as actives. After elimination of ALPHAScreen frequent hitter compounds and His-tag frequent hitters (Schorpp, K., I. Rothenaigner, E. Salmina, et al., Identification of Small-Molecule Frequent Hitters from AlphaScreen High-Throughput Screens. J Biomol Screen, 2014. 19(5): p. 715-26), 178 compounds were defined as primary hits and were subsequently tested in five-point serial dilution assays (2.5-40 μM) in TRAF6WTStrepII-Ubc13FH ALPHAScreen experiments. Only compounds with dose-dependent effects on TRAF6WTStrepII-Ubc13FH (n=27) were taken for further research. For analog testing, all compounds were analyzed in ten-point titration (0.2-100 μM) in TRAF6WTStrepII-Ubc13FH ALPHAScreen experiments. In parallel, the compounds were tested in the ALPHAScreen TruHits Kit (PerkinElmer) to rule out unspecific interference with the ALPHAScreen technology.

TRAF6-Ubc13 binding = target: T2, TRAF6-Ubc13 binding (Homo sapiens, UniProt Q9Y4K3); test: Co-immunoprecipitation of HA-TRAF6 and endogenous Ubc13 in HEK 293T cells; type: cell-based
T2 construct: RING-Zincfinger1 (RZ1) domain (residues 50-159) of TRAF6 wildtype; expressed in transfected cells; host or cells: HEK 293T
T2 sequence (Q9Y4K3 50-159): T1 sequence (Q9Y4K3 50-159)
Description: To study the interaction of TRAF6 and Ubc13 in cells, 1×10^6 293T cells were seeded and after 18 hours cells were transfected with lpg pEF-HA empty or pEF-HA-TRAF6 RZ1 plasmid using the X-tremeGENE HP DNA transfection reagent (Roche). 6 hours upon transfection, cells were treated with compound or DMSO. After 42 hours further incubation, cells were harvested in Co-IP lysis buffer and HA-TRAF6 was immunoprecipitated with anti-HA affinity matrix (Roche). Binding of Ubc13 to TRAF6 was examined in Western Blot analysis.

| Structure (SMILES) | inhibitory activity in ALPHAScreen (TRAF6-UBC13 interaction) | interaction of endogenous Ubc13 with ectopically expressed HA-TRAF6 (TRAF6-Ubc13 binding; listed as HZM06-4) | interaction of endogenous Ubc13 with ectopically expressed HA-TRAF6 (TRAF6-Ubc13 binding) |
| --- | --- | --- | --- |
| Cc1nn(-c2ccc3nnc(C)n3n2)c(C)c1CCC(=O)N1CCC(Cc2ccccc2)C1 (stereo not drawn) [Compound 31, 1-(3-benzylpyrrolidin-1-yl)-3-(3,5-dimethyl-1-(3-methyl-[1,2,4]triazolo[4,3-b]pyridazin-6-yl)-1H-pyrazol-4-yl)propan-1-one] | most prominent effect | active in cells; also recorded: most active analogs |  |
| Cc1nn(-c2ccc3nnc(C)n3n2)c(C)c1CCC(=O)N1CCC(Cc2ccccn2)CC1 [Compound 36, 3-(3,5-dimethyl-1-(3-methyl-[1,2,4]triazolo[4,3-b]pyridazin-6-yl)-1H-pyrazol-4-yl)-1-(4-(pyridin-2-ylmethyl)piperidin-1-yl)propan-1-one] |  |  | active in cells |
